Experimental data as given in patent US4886915A, “Water soluble organic ammonium per halides” (priority 1988, dated 1989).
Blank lines part the entries; values can stand above or below the molecule they belong to.

What was measured:
[1] = Titration for oxidizable bromine (Standard Methods for the Examination of Water and Waste Water, Method 408A); settings: for Tit. Ox. Br2: Table 1, aqueous solution prepared from 48% HBr; for Ox. Br2 of the sample used for vapor pressure: Table 9
[2] = Perbromide closed-bottle shelf life stability at 50° C.; settings: for Initial Ox. Br2: time zero
Experimental: (§1) In order to determine the shelf life stability of the perbromide solutions, a series of studies were conducted to determine the percent bromine lost over time. The following tables shown below list the perbromides studied and the percent oxidizable bromine lost over time. The perbromides studied were kept in closed bottles in ambient conditions (Table 7) and at 50° C.

[3] = Perbromide closed-bottle shelf life stability at ambient temperature; settings: for Initial Ox. Br2: time zero
Experimental: as §1

[4] = Vapor pressure of aqueous organic ammonium perbromides (isoteniscope); settings: for Vp: @ 26° C., Table 9; for vapor pressure of bromine: 26° C., bromine water approx. 3.5% by weight, NaBr3 and perbromides roughly 40% Br2
[5] = Water solubility of perbromides; settings: for Solubility: in water, Tables 2 and 3
[6] = Table 2, perbromide separated as bottom viscous liquid phase
[7] = 50° C., time elapsed 40 (months)
[8] = ambient, time elapsed 24 months (#3 17, #11 16, #23 22 months)
[9] = ambient, time elapsed 24 months (#3 17, #11 16, #23 22 months), 1.0512e+06 min
[10] = Table 4, concentrated (74.1% hydrobromide, #17) and anhydrous (100%, #18-20)

- Tit. Ox. Br [1, 6]: 45.1 % by Weight
Molecule: Dipropylammonium Perbromide [compound 10]

Molecule: Propylammonium Perbromide [Compound #3]
- Tit. Ox. Br2 [1]: 39.3 % by Weight
- Ox. Br2 of the sample used for vapor pressure [1]: 39.3 % by Weight
- Change in % Br2 [2, 7]: 2.0%
- Final Ox. Br2 [2, 7]: 39.0 % by Weight
- Relative Change in % Br2 ([2]; 50° C., time elapsed 40 (months), 1.752e+06 min): 4.9%
- Initial Ox. Br2 ([2]; 50° C.): 41.0 % by Weight
- Change in % Br2 [3, 8]: 0.3%
- Final Ox. Br2 [3, 8]: 41.0 % by Weight
- Relative Change in % Br2 [3, 9]: 0.7%
- Initial Ox. Br2 ([3]; ambient): 41.3 % by Weight
- Vp [4]: 36 mmHg

- Relative Change in % Br2 ([2]; 29200 h): 3.1%
- Relative Change in % Br2 ([3]; 17520 h): 2.0%
Molecule: Ethanolammonium Perbromide [Compound #21]

Molecule: Tributylammonium Perbromide [compound 12, reference compound]
- Tit. Ox. Br [1, 6]: 36.0 % by Weight
- Ox. Br2 of the sample used for vapor pressure [1]: 37.5 % by Weight
- Vp [4]: 28 mmHg

Molecule: 1,6-Hexanediammonium [compound 16]
- Tit. Ox. Br ([1]; Table 3, crystalline perbromide precipitated out of aqueous solution): 51.8 % by Weight

- Tit. Ox. Br [1, 6]: 40.9 % by Weight
- Change in % Br2 [3, 8]: 2.1%
- Final Ox. Br2 [3, 8]: 41.1 % by Weight
- Relative Change in % Br2 [3, 9]: 4.9%
- Initial Ox. Br2 ([3]; ambient): 43.2 % by Weight
- Vp [4]: 38 mmHg
- Solubility [5]: 1.0 g./100 g H2O
Molecule: Dibutylammonium Perbromide [compound 11]

- Relative Change in % Br2 ([2]; 29200 h): 2.7%
- Relative Change in % Br2 ([3]; 17520 h): 2.3%
Molecule: Propylammonium Perbromide [compound 22]

Molecule: Bromine in H2 O [compound 34]
- Ox. Br2 of the sample used for vapor pressure [1]: 3.5 % by Weight
- vapor pressure of bromine [4]: 210 mm Hg
- Vp [4]: 210 mmHg

- Tit. Ox. Br2 [1]: 34.7 % by Weight
Molecule: Octylammonium Perbromide [compound 9]

Molecule: BrBr [compound 35, Pure Bromine]
- Ox. Br2 of the sample used for vapor pressure [1]: 100 % by Weight
- vapor pressure of bromine [4]: approximately 220 mm Hg
- Vp [4]: 223 mmHg

Molecule: Propylammonium Perbromide [Compound #19]
- Tit. Ox. Br [1, 10]: 53.2 % by Weight

- vapor pressure of bromine [4]: 140 mm Hg
- Vp [4]: 145 mmHg
Molecule: Sodium (NaBr3) [compound 33]

- Change in % Br2 [2, 7]: 1.8%
- Final Ox. Br2 [2, 7]: 39.0 % by Weight
- Initial Ox. Br2 ([2]; 50° C.): 40.8 % by Weight
- Relative Change in % Br2 ([2]; 29200 h): 4.4%
- Relative Change in % Br2 ([3]; 17520 h): 4.0%
- Change in % Br2 [3, 8]: 1.6%
- Final Ox. Br2 [3, 8]: 38.5 % by Weight
- Initial Ox. Br2 ([3]; ambient): 40.1 % by Weight
Molecule: Ethanolammonium Perbromide [Compound #1]

- Tit. Ox. Br [1, 10]: 47.3 % by Weight
Molecule: Ethanolammonium Perbromide [Compound #17]

- Tit. Ox. Br2 [1]: 39.3 % by Weight
- Ox. Br2 of the sample used for vapor pressure [1]: 39.3 % by Weight
- Vp [4]: 28 mmHg
Molecule: Methylethanolammonium Perbromide [compound 5]

Molecule: Hexylammonium Perbromide [compound 8]
- Tit. Ox. Br2 [1]: 36.1 % by Weight

- Tit. Ox. Br [1, 10]: 51.8 % by Weight
Molecule: Ethanolammonium Perbromide [Compound #18]

- Tit. Ox. Br2 [1]: 37.7 % by Weight
Molecule: Ethylethanolammonium Perbromide [compound 6]

Molecule: Diethylethanolammonium [compound 14, reference compound]
- Tit. Ox. Br [1, 6]: 42.3 % by Weight
- water solubility (in words) [5]: only sparingly soluble in water
- Solubility [5]: 0.1 g./100 g H2O

Molecule: Diethanolammonium Perbromide [Compound #20]
- Tit. Ox. Br [1, 10]: 45.3 % by Weight
- water solubility (in words) [5]: very soluble in water

Molecule: Dimethylethanolammonium Perbromide [Compound #7, reference compound]
- Vp [4]: 30 mmHg

Molecule: Diethanolammonium Perbromide [Compound #4]
- Change in % Br2 [2, 7]: 7.0%
- Final Ox. Br2 [2, 7]: 30.0 % by Weight
- Initial Ox. Br2 ([2]; 50° C.): 37.0 % by Weight
- Change in % Br2 [3, 8]: 2.0%
- Final Ox. Br2 [3, 8]: 35.0 % by Weight
- Initial Ox. Br2 ([3]; ambient): 37.0 % by Weight
- Vp [4]: 49 mmHg
